# According to ChEMBL document CHEMBL5223175, “Discovery of novel 2-oximino-2-indolylacetamide derivatives as potent anticancer agents capable of inducing cell autophagy and ferroptosis” (Bioorg Med Chem, 2023):
# The source made the active and inactive calls. No cut-off for these calls is given here.
# Columns and labels:
# 5-8F [1] = experiment: Induction of autophagy in human 5-8F cells assessed as increase in LC3 puncta accumulation at 30 uM incubated for 48 hrs by confocal microscopy analysis; type: functional, cell-based
# CAL-27 [2] = experiment: Antiproliferative activity against human CAL-27 cells assessed as reduction in Ki67 expression at 10 to 30 uM by Western blotting analysis; type: functional, cell-based; details: dose 10-30 µM
# 5-8F [3] = experiment: Antiproliferative activity against human 5-8F cells assessed as decrease in cell viability at 30 uM incubated for 48 hrs in presence of Era; type: functional, cell-based
# 5-8F [4] = experiment: Antiproliferative activity against human 5-8F cells assessed as cell viability at 80 uM incubated for 72 hrs by CCK-8 assay; type: functional; details: read-out: Activity
# 5-8F [5] = experiment: Inhibition of colony formation in human 5-8F cells at 10 to 30 uM replaced with fresh medium for every 3 days and measured for 10 to 15 days by Giemsa staining based assay; type: functional, cell-based; details: dose 10-30 µM, time 10-15 day
# 5-8F [6] = experiment: Induction of ferroptosis in human 5-8F cells assessed as decrease in GSH level at 10 to 30 uM incubated for 48 hrs by Western blotting analysis; type: functional, cell-based; details: dose 10-30 µM
# [7] = Toxicity in BALB/c mouse xenografted with human 5-8F cells assessed as change in lung morphology at 10 to 20 mg/kg, ip administered daily by H and E staining based assay; type: organism-based; details: in vivo, dose 10-20 mg/kg
# 5-8F [8] = experiment: Induction of ferroptosis in human 5-8F cells assessed as appearance of mitochondrial pyknosis at 30 uM incubated for 48 hrs by TEM analysis; type: functional, cell-based
# 5-8F [9] = experiment: Induction of apoptosis in human 5-8F cells assessed as downregulation of procaspase-3 expression at 10 to 30 uM incubated for 48 hrs by Western blotting analysis; type: functional, cell-based; details: dose 10-30 µM
# 5-8F [10] = experiment: Induction of ferroptosis in human 5-8F cells assessed as decrease in GPx4 expression at 10 to 30 uM incubated for 48 hrs in presence of Fer-1 by Western blotting analysis; type: functional, cell-based; details: dose 10-30 µM
# 5-8F [11] = experiment: Induction of apoptosis in human 5-8F cells assessed as increase in dead cells incubated for 48 hrs by microscopic analysis; type: functional, cell-based; details: dose 10-30 µM
# 5-8F [12] = experiment: Antitumor activity against human 5-8F cells xenografted in BALB/c mouse assessed as decrease in Ki67 expression at 10 to 20 mg/kg, ip administered daily; type: functional, organism-based; details: dose 10-20 mg/kg
# 5-8F [13] = experiment: Antitumor activity against human 5-8F cells xenografted in BALB/c mouse assessed as decrease in tumor weight at 10 to 20 mg/kg, ip administered daily; type: functional, organism-based; details: dose 10-20 mg/kg
# 5-8F [14] = experiment: Downregulation of STAT3 phosphorylation in human 5-8F cells at 10 to 30 uM incubated for 48 hrs by Western blotting analysis; type: functional, cell-based; details: dose 10-30 µM
# 5-8F [15] = experiment: Induction of ROS generation in human 5-8F cells at 10 to 30 uM after 48 hrs by fluorescence microscopy analysis; type: functional, cell-based; details: dose 10-30 µM
# 5-8F [16] = experiment: Antitumor activity against human 5-8F cells xenografted in BALB/c mouse assessed as tumor growth inhibition at 10 to 20 mg/kg, ip administered daily; type: functional, organism-based; details: dose 10-20 mg/kg
# 5-8F [17] = experiment: Induction of autophagy in human 5-8F cells assessed as decrease in p62 expression at 10 to 30 uM by Western blotting analysis; type: functional, cell-based; details: dose 10-30 µM
# CAL-27 [18] = experiment: Antiproliferative activity against human CAL-27 cells assessed as reduction in cell viability incubated for 72 hrs by CCK-8 assay; type: functional, cell-based; details: CAL-27, 72 h
# 5-8F [19] = experiment: Antitumor activity against human 5-8F cells xenografted in BALB/c mouse assessed as decrease in GPx4 expression at 10 to 20 mg/kg, ip administered daily; type: functional, organism-based; details: dose 10-20 mg/kg
# 5-8F [20] = experiment: Induction of apoptosis in human 5-8F cells assessed as upregulation of cleaved PARP expression at 10 to 30 uM incubated for 48 hrs by Western blotting analysis; type: functional, cell-based; details: dose 10-30 µM
# 5-8F [21] = experiment: Induction of ferroptosis in human 5-8F cells assessed as decrease in GPx4 expression at 10 to 30 uM incubated for 48 hrs in presence of Era by Western blotting analysis; type: functional, cell-based; details: dose 10-30 µM
# 5-8F [22] = experiment: Induction of ferroptosis in human 5-8F cells assessed as appearance of pseudo inclusion bodies at 30 uM incubated for 48 hrs by TEM analysis; type: functional, cell-based
# 5-8F [23] = experiment: Upregulation of p38 MAPK phosphorylation in human 5-8F cells at 10 to 30 uM by Western blotting analysis; type: functional, cell-based; details: dose 10-30 µM
# CAL-27 [24] = experiment: Antiproliferative activity against human CAL-27 cells assessed as reduction in cell viability at 5 to 40 uM incubated for 48 hrs by CCK-8 assay; type: functional, cell-based; details: dose 5-40 µM
# FaDu = experiment: Antiproliferative activity against human FaDu cells assessed as reduction in cell viability incubated for 72 hrs by CCK-8 assay; type: functional, cell-based
# 5-8F [25] = experiment: Antiproliferative activity against human 5-8F cells assessed as reduction in cell viability at 5 to 40 uM incubated for 48 hrs by CCK-8 assay; type: functional, cell-based; details: dose 5-40 µM
# 5-8F [26] = experiment: Induction of ferroptosis in human 5-8F cells assessed as appearance of vacuoles at 30 uM incubated for 48 hrs by TEM analysis; type: functional, cell-based
# [27] = Toxicity in BALB/c mouse xenografted with human 5-8F cells assessed as change in heart morphology at 10 to 20 mg/kg, ip administered daily by H and E staining based assay; type: organism-based; details: in vivo, dose 10-20 mg/kg
# [28] = Antiproliferative activity against human NP69SV40T cells assessed as reduction in cell viability incubated for 72 hrs by CCK-8 assay; type: toxicity, cell-based
# 5-8F [29] = experiment: Induction of apoptosis in human 5-8F cells assessed as downregulation of Bcl-2 expression at 10 to 30 uM incubated for 48 hrs by Western blotting analysis; type: functional, cell-based; details: dose 10-30 µM
# 5-8F [30] = experiment: Induction of ferroptosis in human 5-8F cells assessed as appearance of widened gabs between cristae at 30 uM incubated for 48 hrs by TEM analysis; type: functional, cell-based
# 5-8F [31] = experiment: Induction of ferroptosis in human 5-8F cells assessed as increase in membrane density at 30 uM incubated for 48 hrs by TEM analysis; type: functional, cell-based
# 5-8F [32] = experiment: Induction of apoptosis in human 5-8F cells assessed as appearance of rounded cells incubated for 48 hrs by microscopic analysis; type: functional, cell-based; details: dose 10-30 µM
# [33] = Toxicity in BALB/c mouse xenografted with human 5-8F cells assessed as change in liver morphology at 10 to 20 mg/kg, ip administered daily by H and E staining based assay; type: organism-based; details: in vivo, dose 10-20 mg/kg
# 5-8F [34] = experiment: Downregulation of p-AKT expression in human 5-8F cells at 10 to 30 uM by Western blotting analysis; type: functional, cell-based; details: dose 10-30 µM
# 5-8F [35] = experiment: Antiproliferative activity against human 5-8F cells assessed as decrease in cell viability at 30 uM incubated for 48 hrs in presence of Fer-1; type: functional, cell-based
# 5-8F [36] = experiment: Induction of autophagy in human 5-8F cells assessed as increase in LC3I to LC3II conversion at 10 to 30 uM by Western blotting analysis; type: functional, cell-based; details: dose 10-30 µM, time 48.0 hrs
# 5-8F [37] = experiment: Induction of apoptosis in human 5-8F cells assessed as upregulation of Bax expression at 10 to 30 uM incubated for 48 hrs by Western blotting analysis; type: functional, cell-based; details: dose 10-30 µM
# 5-8F [38] = experiment: Induction of ferroptosis in human 5-8F cells assessed as appearance of thickened cristae at 30 uM incubated for 48 hrs by TEM analysis; type: functional, cell-based
# 5-8F [39] = experiment: Induction of autophagy in human 5-8F cells assessed as increase in Beclin-1 expression at 10 to 30 uM by Western blotting analysis; type: functional, cell-based; details: dose 10-30 µM
compound,measurement,setting,value
Cn1cc(/C(=N\O)C(=O)Nc2ccc(Cl)cc2)c2ccccc21,Activity,5-8F [1],Active
same,Activity,CAL-27 [2],Active
same,Activity,5-8F [3],Active
same,viability at 80 µM,5-8F [4],7.8%
same,inhibition,5-8F [5],Active
same,Activity,5-8F [6],Active
same,Activity,[7],Non-Toxic
same,Activity,5-8F [8],Active
same,Activity,5-8F [9],Active
same,Activity,5-8F [10],inactive
same,Activity,5-8F [11],Dose-Dependent Effect
same,Activity,5-8F [12],Active
same,Activity,5-8F [13],Active
same,Activity,5-8F [14],Active
same,Activity,5-8F [15],Active
same,Activity,5-8F [16],Active
same,Activity,5-8F [17],Active
same,IC50,CAL-27 [18],13.7 µM
same,Activity,5-8F [19],Active
same,Activity,5-8F [20],Active
same,Activity,5-8F [21],Active
same,Activity,5-8F [22],Active
same,Activity,5-8F [23],Active
same,Activity,CAL-27 [24],Active
same,IC50,FaDu,22.2 µM
same,Activity,5-8F [25],Active
same,Activity,5-8F [26],Active
same,Activity,[27],Non-Toxic
same,IC50 at 72 h,[28],70.9 µM
same,Activity,5-8F [29],Active
same,Activity,5-8F [30],Active
same,Activity,5-8F [31],Active
same,Activity,5-8F [32],Dose-Dependent Effect
same,Activity,[33],Non-Toxic
same,Activity,5-8F [34],Active
same,Activity,5-8F [35],inactive
same,Activity,5-8F [36],Active
same,Activity,5-8F [37],Active
same,Activity,5-8F [38],Active
same,Activity,5-8F [39],Active
